The text below walks through data of paper PMC12631912, “A Multifunctional Molecular Probe for Multimodal Imaging‐Guided Potent Photothermal/Photodynamic Therapy of Endometriosis” (Advanced Science, 2025).

Data set [1] relates to EMS lesions. The data set can be described thus: In vivo T1-weighted MRI of EMS lesions. Set-up: species or system Wistar female rats. The following applies: EMS rats, 4.5 mg Gd per kg i.v., 30 min and 5 h post-injection, 3.0 T. On the procedure: Prior to the imaging procedure, the rats were anesthetized through intraperitoneal injection of 1% sodium pentobarbital at a dosage of 45 mg kg^−1. Following anesthesia, the rats were positioned inside a 3.0 T MRI scanner sourced from the First Hospital of Sun Yat‐sen University.
Prior to drug administration, the rats underwent T 1‐weighted imaging using the fast spin‐echo sequence with the following parameters: TR = 400 ms; TE = 12 ms; FOV = 80 mm × 80 mm; matrix size = 672 × 672; voxel size = 0.24 mm × 0.24 mm; slice thickness = 1 mm; flip angle = 150°; and NSA = 5.
T 1‐weighted imaging using the fast spin‐echo sequence was repeated at 30 min and 5 h post‐injection, respectively, with adjusted parameters: TR = 425 ms; TE = 12 ms; FOV = 80 mm × 80 mm; matrix size = 384 × 384; voxel size = 0.42 mm × 0.42 mm; slice thickness = 1 mm; flip angle = 150°; and NSA = 7.

For another data set, the system named is Ishikawa cells. As to the kind of experiment: In vitro photothermal/photodynamic therapy, CCK-8 viability after laser. It counts as cell-based. As to conditions: CCK-8, 2 h incubation, 808 nm, 1.0 W cm^−2, 5 min, concentration of the quoted value not stated (range 2.5 to 50 µg mL^−1 ICG), mean ± SD, n = 4. On the procedure:
(§1) Ishikawa cells and EESCs were seeded in a 96‐well plate at a density of 1 × 10^4 cells per well and allowed to adhere overnight. […] Following this incubation, the cells were irradiated with an 808 nm laser (1.0 W cm^−2, 5 min). The viability of cells was measured using the CCK‐8 assay.

The test system of data set [2] is endometriotic lesions. The data set can be described thus: In vivo anti-EMS efficacy, xenograft model. As to conditions: xenograft EMS nude mice. Also on record: species or system BALB/c nude mice. On the procedure: As shown in previous references,^[ [19] ^] to establish a xenograft EMS model in nude mice, female BALB/c nude mice (5‐6 weeks, 18‐20 g) served as recipients, and female Sprague–Dawley rats (7‐9 weeks, 200–240 g) with regular 4–5 days estrous cycles were selected as donors after a week of acclimatization. Prior to surgery, nude mice received daily intramuscular β‐estradiol 17‐pentanoate (0.25 µg g^−1) for 3 days. The EMS model was induced by subcutaneous transplantation of ≈40 mg of rat uterine fragments into nude mice. The uterine horns from euthanized donors were sterilely collected, bisected, minced, and suspended in DMEM/F12 medium before injection. Nude mice then received β‐estradiol 17‐pentanoate (0.25 µg g^−1) injections every 2 days, and endometriotic lesions reaching 100 mm^3 were used for subsequent experiments.
(§2) Mice were injected with different formulations via the tail vein every 3 days until euthanasia, with an ICG dose of 3 mg kg^−1. For groups receiving NIR laser irradiation, the procedure was conducted 1 h post‐administration with a power of 1.0 W cm^− ^2 for 10 min. Mouse body weights were recorded every 3 days, and xenograft growth was monitored using a vernier caliper. EMS rats (n = 4) underwent the same treatment strategy after 28 days of autotransplantation, with body weight changes monitored every 3 days. After 18 days of treatment, rats were euthanized for autograft size measurement. Nude mice were euthanized after 18 days for graft extraction, followed by H&E staining and TUNEL assay. Briefly, sections were deparaffinized, hydrated, stained with H&E, and visualized under an optical microscope.
TUNEL staining was performed following the instructions provided in the FITC TUNEL Cell Apoptosis Detection Kit (G1501, Servicebio, Wuhan). Paraffin sections were dewaxed, hydrated, repaired with proteinase K, and permeabilized with Triton X‐100. After incubating with buffer at room temperature for 10 min, a reaction solution containing TdT enzyme, dUTP, and buffer (1:5:50 ratio) was added and incubated at 37 °C for 1 h. Nuclei were counterstained with DAPI for 10 min, followed by three 5 min PBS washes (pH 7.4) on a decolorizing shaker. The slides were then blocked with an anti‐fluorescence quenching blocker (G1401, Sevier, Wuhan). The slides were visualized under CLSM with DAPI (blue light, excited at 330–380 nm, emitted at 420 nm) and FITC (green light, excited at 465–495 nm, emitted at 515–555 nm).

The subject of data set [3] is endometriotic lesions. As to the kind of experiment: In vivo anti-EMS efficacy, autologous transplantation model. Set-up: species or system Wistar female rats. The following applies: EMS rats, i.v. every 3 days, six times, 808 nm 1.0 W cm^−2 10 min 1 h post-administration; n = 4. On the procedure:
as §2

A further data set relates to EESCs. As to the kind of experiment: In vitro photothermal/photodynamic therapy, CCK-8 viability after laser. It counts as cell-based, human. As to conditions: CCK-8, 2 h incubation, 808 nm, 1.0 W cm^−2, 5 min, concentration of the quoted value not stated (range 2.5 to 50 µg mL^−1 ICG), mean ± SD, n = 4. On the procedure: as §1
Data set [4] is described as follows: Photothermal heating and photothermal conversion efficiency of probe solutions. It counts as physicochemical. As to conditions: for temperature elevation of solution: 808 nm laser, 1.0 W cm^−2, 5 min. On the procedure: Subsequently, a digital thermographic camera (Fluke Ti27, IR Fusion Technology, USA) was used to capture infrared thermal images and measure temperatures. The relationship between temperature values and laser irradiation duration was recorded using AnalyzIR software (4.0.0). […] The PCE (η) was subsequently calculated based on these measurements.^[ [41] ^]

Data set [5] can be described thus: ROS generation in solution with DPBF indicator under 808 nm laser. It counts as physicochemical. The following applies: C ICG = 10 µg mL^−1 in methanol, DPBF absorbance at 410 nm, 808 nm laser 1.0 W cm^−2, within 10 min. On the procedure: The generation of ROS was quantified using DPBF as a probe. […] The gradual decrease in the UV absorption of DPBF was monitored using a UV–vis spectrophotometer, and the correlation between the UV absorbance values and the laser exposure time was recorded.

Data set [6] deals with EMS lesions. As to the kind of experiment: In vivo photoacoustic imaging of EMS lesions. Set-up: species or system BALB/c nude mice. As to conditions: EMS nude mice, ICG 4 µg g^−1 i.v., imaging to 48 h; n = 3. On the procedure: PAI was conducted using a TomoWave LOIS‐3D series photoacoustic imaging system before injection and at 30 min, 5 h, 24 h, and 48 h post‐injection. Photoacoustic image processing and analysis were conducted using LOIS View 3D software and ImageJ 1.53e. ROIs were manually delineated on axial photoacoustic images to quantify lesion signal intensity (SI).

For ICG‐lys‐DTPA@Gd [ILD], the “T 1-weighted signal intensity at the lesion site” value in the data set on EMS lesions [1] was “no significant increase”. For the same substance, the “cell viability after laser irradiation” value with Ishikawa cells is 48.41 ± 1.74%; in the data set with EESCs, 55.35 ± 1.1%. Further, the “H&E histology of ectopic lesions, probe + laser” value in the data set on endometriotic lesions [2] (after 18 days of treatment) is “pronounced graft growth suppression”. Besides, the “inhibition of lesion growth, probe + laser” value with endometriotic lesions [3] is listed as “superior efficacy in inhibiting lesion growth compared to the other groups”. The “temperature elevation of solution” value in data set [4] (C ICG = 50 µg mL^−1 in PBS) was “≈ 20 °C”. Further, the “reduction in DPBF absorbance (ROS generation)” value in data set [5] is recorded as approximately 56%. Also, the “PA signal in lesions over time” value with EMS lesions [6] is listed as “rapid signal attenuation”.
Turning to “c(RGDyK)‐ICG‐lys‐DTPA@Gd (head to tail) [cRGD‐ILD, targeting theranostic probe integrating cRGD peptide, ICG fragment and DTPA@Gd complex]”, the “T 1-weighted signal intensity at the lesion site” value in the data set with EMS lesions [1] is “notable enhancement”. For the same substance, the “cell viability after laser irradiation” value in the data set on Ishikawa cells is 23.8 ± 1.36%. In addition, the “therapeutic efficacy, probe + laser” value with endometriotic lesions [2] (ICG 3 mg kg^−1 i.v. every 3 days, 808 nm 1.0 W cm^−2 10 min, 18 days, n = 5) was “outperformed the ILD + laser combination”. Besides, in the data set with endometriotic lesions [2] (after 18 days of treatment), the “H&E histology of ectopic lesions, probe + laser” value is “pronounced graft growth suppression” and the “TUNEL assay of lesions, probe + laser” value was “peak apoptotic activity”. In addition, the “inhibition of lesion growth, probe + laser” value in the data set on endometriotic lesions [3] is listed as “superior efficacy in inhibiting lesion growth compared to the other groups”. In addition, the “cell viability after laser irradiation” value in the data set with EESCs came out at 30.27 ± 2.02%. Besides, the maximum temperature increase result in data set [4] (50 µg/mL, 1 W/cm², laser on/off, 5 photothermal cycles (Figure S12a)) is “≈ 45 °C”. Moreover, the “temperature elevation of solution” value in data set [4] (C ICG = 50 µg mL^−1 in PBS) is “≈ 20 °C”. In addition, the “Photothermal conversion efficiency (PCE)” value in data set [4] (C ICG = 50 µg mL^−1 in PBS, 808 nm, 1 W/cm², calculated from heating and cooling curves) is 29.81%. Further, the “reduction in DPBF absorbance (ROS generation)” value in data set [5] is given as “≈ 58%”. Also, the “PA signal in lesions over time” value with EMS lesions [6] is “sustained elevated PA signal intensities at 5 and 24 h”.
